{
  "source": "paper PMC8185074",
  "about": "“Anchor extension: a structure-guided approach to design cyclic peptides targeting enzyme active sites” (Nature Communications, 2021)",
  "format_in_all_cases": "biochemical",
  "key": {"[1]": {"target": "T1, HDAC2 (Homo sapiens, UniProt Q92769)", "T1 construct": "purchased Reaction Biology Corporation (assay run by the CRO)", "T1 sequence (Q92769 whole entry)": "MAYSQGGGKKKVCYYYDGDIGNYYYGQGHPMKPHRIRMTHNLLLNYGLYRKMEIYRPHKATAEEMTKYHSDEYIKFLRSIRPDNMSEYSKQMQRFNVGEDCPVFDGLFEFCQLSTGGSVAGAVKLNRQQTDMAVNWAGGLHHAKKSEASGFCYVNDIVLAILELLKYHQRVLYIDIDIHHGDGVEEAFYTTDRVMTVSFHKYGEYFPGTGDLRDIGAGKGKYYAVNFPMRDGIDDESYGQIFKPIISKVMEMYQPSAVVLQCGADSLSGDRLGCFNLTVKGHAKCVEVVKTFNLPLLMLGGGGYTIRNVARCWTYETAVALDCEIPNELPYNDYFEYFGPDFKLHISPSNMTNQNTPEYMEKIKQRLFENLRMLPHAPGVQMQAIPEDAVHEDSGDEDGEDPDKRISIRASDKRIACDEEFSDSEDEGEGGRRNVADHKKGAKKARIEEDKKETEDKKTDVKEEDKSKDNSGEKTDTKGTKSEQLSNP", "assay": "HDAC2 inhibition, full IC50 measurement (Reaction Biology; fluorogenic p53 peptide RHKK(Ac)AMC)", "how_it_was_run": "(§1)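 Deacetylation of 50 μM RHKK(Ac)AMC is measured after 1 h at 30 °C in pH 8.0 Tris buffer (1% DMSO, 1 mg/ml BSA). Developer ends the reaction; the post-plateau 360/460 nm signal is fitted to IC50, averaging replicate measurements.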"}, "[2]": {"target": "T2, HDAC1 (Homo sapiens, UniProt Q13547)", "T2 construct": "purchased Reaction Biology Corporation (assay run by the CRO)", "T2 sequence (Q13547 whole entry)": "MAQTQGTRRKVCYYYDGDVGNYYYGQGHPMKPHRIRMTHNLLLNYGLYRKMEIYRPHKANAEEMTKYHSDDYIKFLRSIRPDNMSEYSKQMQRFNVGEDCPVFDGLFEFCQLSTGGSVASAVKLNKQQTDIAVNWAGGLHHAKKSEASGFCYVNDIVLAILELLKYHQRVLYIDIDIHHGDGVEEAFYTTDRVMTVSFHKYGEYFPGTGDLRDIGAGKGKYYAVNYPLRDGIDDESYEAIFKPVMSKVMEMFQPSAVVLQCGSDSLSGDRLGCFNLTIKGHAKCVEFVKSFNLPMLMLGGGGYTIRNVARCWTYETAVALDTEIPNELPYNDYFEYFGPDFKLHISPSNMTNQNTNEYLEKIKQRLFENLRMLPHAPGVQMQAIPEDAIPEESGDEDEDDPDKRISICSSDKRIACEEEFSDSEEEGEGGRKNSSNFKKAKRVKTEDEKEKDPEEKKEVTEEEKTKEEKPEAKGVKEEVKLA", "assay": "HDAC1 inhibition, full IC50 measurement (Reaction Biology; fluorogenic p53 peptide RHKK(Ac)AMC)", "conditions": "for HDAC1 activity raw data (signal): t1/t2 replicates", "how_it_was_run": "as §1"}, "[3]": {"target": "T3, HDAC8 (Homo sapiens, UniProt Q9BY41)", "T3 construct": "purchased Reaction Biology Corporation (assay run by the CRO)", "T3 sequence (Q9BY41 1-377)": "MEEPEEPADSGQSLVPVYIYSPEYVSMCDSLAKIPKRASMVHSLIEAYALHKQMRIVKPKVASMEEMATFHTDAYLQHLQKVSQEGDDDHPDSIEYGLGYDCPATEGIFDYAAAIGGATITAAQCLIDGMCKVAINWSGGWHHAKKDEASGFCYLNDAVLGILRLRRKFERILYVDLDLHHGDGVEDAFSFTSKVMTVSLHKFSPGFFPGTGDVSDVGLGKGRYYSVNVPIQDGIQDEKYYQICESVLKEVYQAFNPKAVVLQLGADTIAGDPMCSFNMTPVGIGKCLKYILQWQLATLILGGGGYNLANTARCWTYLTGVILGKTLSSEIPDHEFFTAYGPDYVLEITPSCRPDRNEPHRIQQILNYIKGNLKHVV", "assay": "HDAC8 inhibition, full IC50 measurement (Reaction Biology; fluorogenic p53 peptide RHKK(Ac)AMC)", "conditions": "for HDAC8 activity raw data (signal): t1/t2 replicates", "how_it_was_run": "as §1"}, "[4]": {"conditions": "peptide conc. 1.00E-05 M, listed as des4.2.0_t1"}, "[5]": {"conditions": "peptide conc. 1.00E-05 M, listed as des4.2.0_t2"}, "[6]": {"conditions": "peptide conc. 1.11E-06 M, listed as des4.2.0_t1"}, "[7]": {"conditions": "peptide conc. 1.11E-06 M, listed as des4.2.0_t2"}, "[8]": {"conditions": "peptide conc. 1.23E-07 M, listed as des4.2.0_t1"}, "[9]": {"conditions": "peptide conc. 1.23E-07 M, listed as des4.2.0_t2"}, "[10]": {"conditions": "peptide conc. 1.37E-08 M, listed as des4.2.0_t1"}, "[11]": {"conditions": "peptide conc. 1.37E-08 M, listed as des4.2.0_t2"}, "[12]": {"conditions": "peptide conc. 1.52E-09 M, listed as des4.2.0_t1"}, "[13]": {"conditions": "peptide conc. 1.52E-09 M, listed as des4.2.0_t2"}, "[14]": {"conditions": "peptide conc. 3.33E-06 M, listed as des4.2.0_t1"}, "[15]": {"conditions": "peptide conc. 3.33E-06 M, listed as des4.2.0_t2"}, "[16]": {"conditions": "peptide conc. 3.70E-07 M, listed as des4.2.0_t1"}, "[17]": {"conditions": "peptide conc. 3.70E-07 M, listed as des4.2.0_t2"}, "[18]": {"conditions": "peptide conc. 4.12E-08 M, listed as des4.2.0_t1"}, "[19]": {"conditions": "peptide conc. 4.12E-08 M, listed as des4.2.0_t2"}, "[20]": {"conditions": "peptide conc. 4.57E-09 M, listed as des4.2.0_t1"}, "[21]": {"conditions": "peptide conc. 4.57E-09 M, listed as des4.2.0_t2"}, "[22]": {"conditions": "peptide conc. 5.08E-10 M, listed as des4.2.0_t1"}, "[23]": {"conditions": "peptide conc. 5.08E-10 M, listed as des4.2.0_t2"}},
  "note": "Peptide text beside a SMILES is read from it.",
  "data": [
    {"smiles": "CC(C)[C@@H]1NC(=O)[C@H](CCCNC(=N)N)NC(=O)[C@@H](CC(=O)O)NC(=O)[C@H](CO)NC(=O)[C@@H](CO)NC(=O)[C@@H](CCC(=O)O)NC(=O)[C@H](Cc2ccc(O)cc2)NC(=O)[C@H](CCCCCS)NC1=O", "note": "[des4.2.0, SHA-Tyr-dGlu-dSer-Ser-dAsp-Arg-Val] (HELM PEPTIDE1{R.V.[O=C([C@H](CCCCCS)N[*:1])[*:2]].Y.[dE].[dS].S.[dD]}$PEPTIDE1,PEPTIDE1,1:R1-8:R2$$$V2.0)", "values": [
      {"measurement": "HDAC2 activity raw data (signal)", "setting": "[1]; Conc. 1.00E-05 M, t1", "value": 20394},
      {"measurement": "HDAC2 activity raw data (signal)", "setting": "[1]; Conc. 1.00E-05 M, t2", "value": 38836},
      {"measurement": "HDAC2 activity raw data (signal)", "setting": "[1]; Conc. 1.11E-06 M, t1", "value": 480221},
      {"measurement": "HDAC2 activity raw data (signal)", "setting": "[1]; Conc. 1.11E-06 M, t2", "value": 475819},
      {"measurement": "HDAC2 activity raw data (signal)", "setting": "[1]; Conc. 1.23E-07 M, t1", "value": 1083936},
      {"measurement": "HDAC2 activity raw data (signal)", "setting": "[1]; Conc. 1.23E-07 M, t2", "value": 1073630},
      {"measurement": "HDAC2 activity raw data (signal)", "setting": "[1]; Conc. 1.37E-08 M, t1", "value": 1586330},
      {"measurement": "HDAC2 activity raw data (signal)", "setting": "[1]; Conc. 1.37E-08 M, t2", "value": 1580365},
      {"measurement": "HDAC2 activity raw data (signal)", "setting": "[1]; Conc. 1.52E-09 M, t1", "value": 1730890},
      {"measurement": "HDAC2 activity raw data (signal)", "setting": "[1]; Conc. 1.52E-09 M, t2", "value": 1745453},
      {"measurement": "HDAC2 activity raw data (signal)", "setting": "[1]; Conc. 3.33E-06 M, t1", "value": 208395},
      {"measurement": "HDAC2 activity raw data (signal)", "setting": "[1]; Conc. 3.33E-06 M, t2", "value": 205670},
      {"measurement": "HDAC2 activity raw data (signal)", "setting": "[1]; Conc. 3.70E-07 M, t1", "value": 726508},
      {"measurement": "HDAC2 activity raw data (signal)", "setting": "[1]; Conc. 3.70E-07 M, t2", "value": 767311},
      {"measurement": "HDAC2 activity raw data (signal)", "setting": "[1]; Conc. 4.12E-08 M, t1", "value": 1358432},
      {"measurement": "HDAC2 activity raw data (signal)", "setting": "[1]; Conc. 4.12E-08 M, t2", "value": 1262650},
      {"measurement": "HDAC2 activity raw data (signal)", "setting": "[1]; Conc. 4.57E-09 M, t1", "value": 1679024},
      {"measurement": "HDAC2 activity raw data (signal)", "setting": "[1]; Conc. 4.57E-09 M, t2", "value": 1646125},
      {"measurement": "HDAC2 activity raw data (signal)", "setting": "[1]; Conc. 5.08E-10 M, t1", "value": 1775852},
      {"measurement": "HDAC2 activity raw data (signal)", "setting": "[1]; Conc. 5.08E-10 M, t2", "value": 1816576},
      {"measurement": "IC50", "setting": "[1]; figure legends, Supp. Table 1, read-out: HDAC2 IC50", "value": 214, "unit": "nM"},
      {"measurement": "IC50", "setting": "[2]; Supp. Table 1", "value": 58.2, "unit": "nM"},
      {"measurement": "HDAC1 activity raw data (signal)", "setting": "[2]; [4]", "value": 11630},
      {"measurement": "HDAC1 activity raw data (signal)", "setting": "[2]; [5]", "value": 12995},
      {"measurement": "HDAC1 activity raw data (signal)", "setting": "[2]; [6]", "value": 76613},
      {"measurement": "HDAC1 activity raw data (signal)", "setting": "[2]; [7]", "value": 123433},
      {"measurement": "HDAC1 activity raw data (signal)", "setting": "[2]; [8]", "value": 411114},
      {"measurement": "HDAC1 activity raw data (signal)", "setting": "[2]; [9]", "value": 418507},
      {"measurement": "HDAC1 activity raw data (signal)", "setting": "[2]; [10]", "value": 880188},
      {"measurement": "HDAC1 activity raw data (signal)", "setting": "[2]; [11]", "value": 934141},
      {"measurement": "HDAC1 activity raw data (signal)", "setting": "[2]; [12]", "value": 1108126},
      {"measurement": "HDAC1 activity raw data (signal)", "setting": "[2]; [13]", "value": 1086586},
      {"measurement": "HDAC1 activity raw data (signal)", "setting": "[2]; [14]", "value": 45545},
      {"measurement": "HDAC1 activity raw data (signal)", "setting": "[2]; [15]", "value": 50745},
      {"measurement": "HDAC1 activity raw data (signal)", "setting": "[2]; [16]", "value": 212662},
      {"measurement": "HDAC1 activity raw data (signal)", "setting": "[2]; [17]", "value": 215699},
      {"measurement": "HDAC1 activity raw data (signal)", "setting": "[2]; [18]", "value": 634511},
      {"measurement": "HDAC1 activity raw data (signal)", "setting": "[2]; [19]", "value": 682055},
      {"measurement": "HDAC1 activity raw data (signal)", "setting": "[2]; [20]", "value": 995614},
      {"measurement": "HDAC1 activity raw data (signal)", "setting": "[2]; [21]", "value": 978150},
      {"measurement": "HDAC1 activity raw data (signal)", "setting": "[2]; [22]", "value": 1100683},
      {"measurement": "HDAC1 activity raw data (signal)", "setting": "[2]; [23]", "value": 1179300},
      {"measurement": "IC50", "setting": "[3]; Supp. Table 1", "value": 370, "unit": "nM"},
      {"measurement": "HDAC8 activity raw data (signal)", "setting": "[3]; [4]", "value": 92279},
      {"measurement": "HDAC8 activity raw data (signal)", "setting": "[3]; [5]", "value": 81671},
      {"measurement": "HDAC8 activity raw data (signal)", "setting": "[3]; [6]", "value": 396585},
      {"measurement": "HDAC8 activity raw data (signal)", "setting": "[3]; [7]", "value": 434279},
      {"measurement": "HDAC8 activity raw data (signal)", "setting": "[3]; [8]", "value": 727023},
      {"measurement": "HDAC8 activity raw data (signal)", "setting": "[3]; [9]", "value": 752193},
      {"measurement": "HDAC8 activity raw data (signal)", "setting": "[3]; [10]", "value": 1107635},
      {"measurement": "HDAC8 activity raw data (signal)", "setting": "[3]; [11]", "value": 1031405},
      {"measurement": "HDAC8 activity raw data (signal)", "setting": "[3]; [12]", "value": 1115979},
      {"measurement": "HDAC8 activity raw data (signal)", "setting": "[3]; [13]", "value": 1078250},
      {"measurement": "HDAC8 activity raw data (signal)", "setting": "[3]; [14]", "value": 190039},
      {"measurement": "HDAC8 activity raw data (signal)", "setting": "[3]; [15]", "value": 213758},
      {"measurement": "HDAC8 activity raw data (signal)", "setting": "[3]; [16]", "value": 540901},
      {"measurement": "HDAC8 activity raw data (signal)", "setting": "[3]; [17]", "value": 562035},
      {"measurement": "HDAC8 activity raw data (signal)", "setting": "[3]; [18]", "value": 828599},
      {"measurement": "HDAC8 activity raw data (signal)", "setting": "[3]; [19]", "value": 842494},
      {"measurement": "HDAC8 activity raw data (signal)", "setting": "[3]; [20]", "value": 599790},
      {"measurement": "HDAC8 activity raw data (signal)", "setting": "[3]; [21]", "value": 1026390},
      {"measurement": "HDAC8 activity raw data (signal)", "setting": "[3]; [22]", "value": 1085628},
      {"measurement": "HDAC8 activity raw data (signal)", "setting": "[3]; [23]", "value": 1128546}
    ]}
  ]
}
